Data from US20260364079A1 (Principia Biopharma Inc., priority 2022, published 2026).
“Also recorded” adds a separate entry of the source.

Key:
[1] = system: 251 kinases; assay: broad kinase enzyme inhibition panel; format: biochemical; settings: 1 μM; of 251 kinases
[2] = system: rat Arthus reaction; assay: rat Arthus reaction; format: in vivo
[3] = system: collagen-induced arthritis; assay: rat collagen-induced arthritis model; format: in vivo
[4] = system: immune thrombocytopenia; assay: mouse model of immune thrombocytopenia; format: in vivo; settings: mouse ITP model
[5] = system: human B cell; assay: in vitro human B cell activation; format: cell-based
[6] = system: Fc receptor signaling; assay: in vitro antibody (IgG, IgE) mediated activation of immune cells via Fc receptor signaling; format: cell-based
[7] = in comparison to first and second generation BTKi; cited from earlier work

With `CC(C)(C=C(C#N)C(=O)N1CCC[C@@H](n2nc(-c3ccc(Oc4ccccc4)cc3F)c3c(N)ncnc32)C1)N1CCN(C2COC2)CC1` (mixture of isomers) [rilzabrutinib, (R)-2-[3-[4-amino-3-(2-fluoro-4-phenoxy-phenyl)pyrazolo[3,4-d]pyrimidin-1-yl]piperidine-1-carbonyl]-4-methyl-4-[4-(oxetan-3-yl)piperazin-1-yl]pent-2-enenitrile] the “number of kinases with >90% inhibition” value [1] was 6 kinases, the “effect on rat Arthus reaction” value [2] was “blockade of the rat Arthus reaction” and the disease reversal [3] was “full disease reversal”. For the same molecule, the “platelet loss (consumption)” value [4] was “reduction in platelet loss; also recorded: significant dose dependent reduction of platelet-loss”, the “human B cell activation” value [5] was “profoundly inhibits human B cell activation” and the “antibody (IgG, IgE) mediated activation of immune cells via Fc receptor signaling” value [6] was “blocks antibody (IgG, IgE) mediated activation of immune cells via Fc receptor signaling”. For the same molecule, the “cross-reactivity with other molecules” value [7] was “minimal cross-reactivity with other molecules and is low risk for off-target effects”.
